This passage reports TGI results from PubChem BioAssay (NCI).

Among the test systems are 786-0 renal; SK-MEL-28 melanoma; SF-295 CNS; CCRF-CEM leukemia; UACC-257 melanoma; HCT-15 colon; SK-MEL-2 melanoma; M14 melanoma; NCI-H226 lung.
Holding throughout (experiment): NCI anticancer screen, dose series, 48 h

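1) Cells in 96-well plates. 2) Compound, 48 h, 5 concentrations. 3) Linear interpolation between surrounding doses. 4) Unreached endpoint = highest concentration. TGI marks complete inhibition of growth.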 A value given as a limit tells only on which side of the number the result lay.

With `C=C=C(C(=O)OC)S(=O)c1ccc([N+](=O)[O-])cc1[N+](=O)[O-]` (stereo not drawn), the TGI was > 66.6 µM with 786-0 renal; > 70 µM in the assay on SK-MEL-28 melanoma; > 100 µM in the assay on SF-295 CNS; 32.5 µM in the assay on CCRF-CEM leukemia; > 79.9 µM in the assay with UACC-257 melanoma; 45.3 µM in the assay on HCT-15 colon. In addition, the figures for the TGI in the assay on SK-MEL-2 melanoma, in the assay on M14 melanoma and in the assay with NCI-H226 lung were > 79.8 µM, > 69.5 µM and > 100 µM, respectively.
In the case of `COC(=O)c1c(-c2ccccc2)sc(-c2cccc3ccccc23)c1C(=O)OC`, the TGI in the assay on 786-0 renal, in the assay on SK-MEL-28 melanoma, in the assay on SF-295 CNS, in the assay on CCRF-CEM leukemia, in the assay on UACC-257 melanoma and with HCT-15 colon was > 100 µM in each case. Moreover, the TGI with SK-MEL-2 melanoma, with M14 melanoma and with NCI-H226 lung was > 100 µM throughout.
With `CCN(CC)c1ccc2c(c1)Nc1cc(=C(C#N)C#N)c3ccccc3c1=N2`, the TGI in the assay on 786-0 renal, in the assay with SK-MEL-28 melanoma, in the assay with SF-295 CNS, with UACC-257 melanoma, in the assay on SK-MEL-2 melanoma and with M14 melanoma was > 100 µM throughout. For the same compound, the TGI in the assay on NCI-H226 lung is > 100 µM.
`Cc1cc2c(=O)c3ccccc3[nH]c2c(C(=O)O)c1C`: the TGI with 786-0 renal, with SK-MEL-28 melanoma, in the assay with SF-295 CNS, in the assay on CCRF-CEM leukemia, in the assay with UACC-257 melanoma and in the assay with HCT-15 colon was > 100 µM each time. Besides, the TGI in the assay on SK-MEL-2 melanoma is > 100 µM.
In the case of `CN=C1SC(=Nc2ccc(N(C)C)cc2)N1C`, the TGI in the assay on 786-0 renal, in the assay with SK-MEL-28 melanoma, in the assay on SF-295 CNS, with CCRF-CEM leukemia, in the assay on UACC-257 melanoma and with HCT-15 colon was > 100 µM each time. Besides, the TGI in the assay with SK-MEL-2 melanoma was 76.6 µM; with M14 melanoma, > 100 µM; in the assay with NCI-H226 lung, > 100 µM.
As to `O=C(OC[C@H]1O[C@@H](OC(=O)c2cc(O)c(O)c(O)c2)[C@H](OC(=O)c2cc(O)c(O)c(O)c2)[C@@H](OC(=O)c2cc(O)c(O)c(O)c2)[C@@H]1OC(=O)c1cc(O)c(O)c(O)c1)c1cc(O)c(O)c(O)c1`, the TGI with 786-0 renal is 21.2 µM; with SK-MEL-28 melanoma it was 56.7 µM; in the assay with SF-295 CNS, 20.3 µM; in the assay with CCRF-CEM leukemia, > 100 µM; in the assay on UACC-257 melanoma it was 65 µM; in the assay on HCT-15 colon, > 100 µM. In addition, the TGI with SK-MEL-2 melanoma was 26.4 µM; in the assay on M14 melanoma, 24.4 µM; with NCI-H226 lung it was 7.98 µM.
For `Cc1nc(C(N)=S)sc1C(=O)C/C(=N/N)C(=O)Nc1cccc(Cl)c1C`, the TGI with 786-0 renal, in the assay on SK-MEL-28 melanoma, with SF-295 CNS, in the assay on CCRF-CEM leukemia, in the assay with UACC-257 melanoma and in the assay on HCT-15 colon was > 100 µM throughout. Moreover, the TGI in the assay with SK-MEL-2 melanoma, in the assay with M14 melanoma and with NCI-H226 lung was > 100 µM throughout.
On to `C1=CC=C2NCCOCCNC3=CC=CC=CC3=NCCOCCN=C2C=C1`, for which the TGI with 786-0 renal is > 100 µM; in the assay on SK-MEL-28 melanoma it was > 100 µM; with SF-295 CNS, > 100 µM; in the assay on CCRF-CEM leukemia, > 100 µM; with UACC-257 melanoma, 44.6 µM; in the assay on HCT-15 colon, > 100 µM. Also, the TGI is > 100 µM with SK-MEL-2 melanoma, 41.6 µM with M14 melanoma and > 100 µM with NCI-H226 lung.
With `COc1ccc(/C=C2\C(=O)N(C(=O)Cc3ccccc3)N=C2C)cc1OC`, the TGI with 786-0 renal, in the assay with SK-MEL-28 melanoma, with SF-295 CNS, in the assay on CCRF-CEM leukemia, with UACC-257 melanoma and in the assay on HCT-15 colon was > 100 µM in each case. Further, the TGI with SK-MEL-2 melanoma, with M14 melanoma and with NCI-H226 lung was > 100 µM in each case.
For the compound `CC(=O)O[C@@H]1C2C(=O)OC(=O)C2C2CCC[C@]23O[C@H]13` (stereo partly drawn), the TGI in the assay with 786-0 renal, in the assay on SK-MEL-28 melanoma, in the assay with CCRF-CEM leukemia, in the assay on UACC-257 melanoma, in the assay with HCT-15 colon and with SK-MEL-2 melanoma was > 100 µM each time. The TGI with M14 melanoma and with NCI-H226 lung was > 100 µM throughout.
As for `Cc1c2cc[n+](C)cc2c(C)c2c1[nH]c1ccc(O)c(OCC(F)(F)F)c12`, the TGI is 9.35 µM in the assay with 786-0 renal; 16 µM in the assay on SK-MEL-28 melanoma; 3.76 µM with SF-295 CNS; 28.4 µM in the assay with CCRF-CEM leukemia; 18.9 µM in the assay with UACC-257 melanoma; 17.6 µM in the assay on SK-MEL-2 melanoma. In addition, the values for the TGI in the assay on M14 melanoma and in the assay on NCI-H226 lung were 15.7 µM and 4.08 µM, respectively.
Regarding `O=c1ccc(=O)c2c(=O)c3ccccc3c(=O)c1=2`, the TGI in the assay on 786-0 renal was > 100 µM; in the assay with SK-MEL-28 melanoma, > 100 µM; in the assay on SF-295 CNS it was > 100 µM; in the assay with CCRF-CEM leukemia, > 100 µM; in the assay on UACC-257 melanoma it was 90.4 µM; in the assay on HCT-15 colon, > 100 µM. In addition, the TGI in the assay on SK-MEL-2 melanoma and with M14 melanoma was > 100 µM each time.
Consider `O=C1CCC(O)=C1O`, for which the TGI with 786-0 renal, with SK-MEL-28 melanoma, with SF-295 CNS, in the assay with CCRF-CEM leukemia, in the assay with HCT-15 colon and in the assay with SK-MEL-2 melanoma was > 100 µM in each case. The TGI in the assay with M14 melanoma and in the assay with NCI-H226 lung was > 100 µM in each case.
For `CC1(C)C2CCC3(C2)CS(=O)(=O)N2OC231` (stereo not drawn), the TGI in the assay with 786-0 renal is 31.2 µM; in the assay with SK-MEL-28 melanoma it was 44.7 µM; with SF-295 CNS, > 100 µM; in the assay on CCRF-CEM leukemia it was > 100 µM; in the assay on UACC-257 melanoma, 33.1 µM; in the assay on HCT-15 colon it was 30.1 µM. The TGI was found to be 39.3 µM with SK-MEL-2 melanoma and 30 µM in the assay with M14 melanoma.
Take `CCOC(=O)[C@H]1Nc2ccc(OC)cc2C2c3ccccc3CC21` (stereo partly drawn): the TGI with 786-0 renal, in the assay with SK-MEL-28 melanoma, in the assay with SF-295 CNS, in the assay on UACC-257 melanoma, in the assay on HCT-15 colon and in the assay with SK-MEL-2 melanoma was > 100 µM each time. In addition, the TGI with M14 melanoma and in the assay with NCI-H226 lung was > 100 µM in each case.
On to `COC(=O)C1=C(CS(=O)c2ccccc2[N+](=O)[O-])ON(C)C1c1ccccc1` (stereo not drawn), for which the TGI with 786-0 renal was > 100 µM; in the assay with SF-295 CNS, > 100 µM; in the assay on CCRF-CEM leukemia, 39.3 µM; in the assay on UACC-257 melanoma it was > 100 µM; in the assay on HCT-15 colon, 76.3 µM; in the assay on SK-MEL-2 melanoma it was > 100 µM. Further, the TGI in the assay on M14 melanoma and with NCI-H226 lung was > 100 µM in each case.
